Reference: patent US20230295119A1, “SUBSTITUTED PYRIDINES FOR THE TREATMENT OF INFLAMMATORY DISEASES” (GOSSAMER BIO SERVICES, INC., priority 2020, published 2023)

Columns and labels:
TYK2 JH2 domain = TYK2 JH2 domain (Homo sapiens (Human), UniProt P29597); test: TYK2 JH2 NanoBRET assay; format: binding; settings: Table 20, read-out: TYK2 IC50
Procedure, shortened: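 Tracer displacement measured by BRET ratio (acceptor over donor) in live HEK293T cells transfected with a NanoLuc-tagged TYK2 JH2 construct; cells co-exposed to test compound and 0.5 µM final K10 tracer for 2 h before substrate/extracellular inhibitor addition.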

human JAK1 = human JAK1 (Homo sapiens (Human), UniProt P23458); test: JAK1 TR-FRET kinase assay; format: biochemical; settings: TR-FRET, JAK1 2.5 nM
Sequence of human JAK1 (P23458 whole entry): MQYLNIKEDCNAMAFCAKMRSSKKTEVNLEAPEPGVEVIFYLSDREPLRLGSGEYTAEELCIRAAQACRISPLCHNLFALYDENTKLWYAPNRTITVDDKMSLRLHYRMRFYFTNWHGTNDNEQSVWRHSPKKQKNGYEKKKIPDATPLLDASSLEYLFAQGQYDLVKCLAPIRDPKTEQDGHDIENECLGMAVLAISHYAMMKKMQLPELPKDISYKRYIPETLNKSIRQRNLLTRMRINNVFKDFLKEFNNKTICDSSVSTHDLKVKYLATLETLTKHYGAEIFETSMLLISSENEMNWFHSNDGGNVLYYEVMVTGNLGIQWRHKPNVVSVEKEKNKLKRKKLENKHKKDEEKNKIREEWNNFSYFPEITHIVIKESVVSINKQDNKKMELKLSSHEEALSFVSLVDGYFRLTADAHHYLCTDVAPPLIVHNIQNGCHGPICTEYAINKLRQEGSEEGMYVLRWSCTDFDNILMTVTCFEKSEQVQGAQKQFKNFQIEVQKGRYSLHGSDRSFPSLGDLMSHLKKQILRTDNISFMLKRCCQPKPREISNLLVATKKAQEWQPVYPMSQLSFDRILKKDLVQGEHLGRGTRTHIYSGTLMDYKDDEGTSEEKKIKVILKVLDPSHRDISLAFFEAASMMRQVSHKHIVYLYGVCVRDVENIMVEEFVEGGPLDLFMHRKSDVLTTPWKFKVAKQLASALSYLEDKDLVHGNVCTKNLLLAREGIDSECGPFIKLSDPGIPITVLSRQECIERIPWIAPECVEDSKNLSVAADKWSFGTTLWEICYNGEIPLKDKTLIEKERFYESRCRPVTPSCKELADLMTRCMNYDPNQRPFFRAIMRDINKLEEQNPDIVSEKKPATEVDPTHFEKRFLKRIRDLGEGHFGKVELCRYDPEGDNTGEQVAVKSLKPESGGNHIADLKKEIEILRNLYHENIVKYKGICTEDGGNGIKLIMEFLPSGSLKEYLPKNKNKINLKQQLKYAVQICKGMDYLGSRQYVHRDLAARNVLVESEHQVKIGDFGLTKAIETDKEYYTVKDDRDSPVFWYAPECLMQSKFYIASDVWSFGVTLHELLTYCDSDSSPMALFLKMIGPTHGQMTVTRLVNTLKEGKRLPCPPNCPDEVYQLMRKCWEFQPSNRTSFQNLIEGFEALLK

human JAK2 = human JAK2 (Homo sapiens (Human), UniProt O60674); test: JAK2 TR-FRET kinase assay; format: biochemical; settings: JAK2 0.025 nM
Sequence of human JAK2 (O60674 whole entry): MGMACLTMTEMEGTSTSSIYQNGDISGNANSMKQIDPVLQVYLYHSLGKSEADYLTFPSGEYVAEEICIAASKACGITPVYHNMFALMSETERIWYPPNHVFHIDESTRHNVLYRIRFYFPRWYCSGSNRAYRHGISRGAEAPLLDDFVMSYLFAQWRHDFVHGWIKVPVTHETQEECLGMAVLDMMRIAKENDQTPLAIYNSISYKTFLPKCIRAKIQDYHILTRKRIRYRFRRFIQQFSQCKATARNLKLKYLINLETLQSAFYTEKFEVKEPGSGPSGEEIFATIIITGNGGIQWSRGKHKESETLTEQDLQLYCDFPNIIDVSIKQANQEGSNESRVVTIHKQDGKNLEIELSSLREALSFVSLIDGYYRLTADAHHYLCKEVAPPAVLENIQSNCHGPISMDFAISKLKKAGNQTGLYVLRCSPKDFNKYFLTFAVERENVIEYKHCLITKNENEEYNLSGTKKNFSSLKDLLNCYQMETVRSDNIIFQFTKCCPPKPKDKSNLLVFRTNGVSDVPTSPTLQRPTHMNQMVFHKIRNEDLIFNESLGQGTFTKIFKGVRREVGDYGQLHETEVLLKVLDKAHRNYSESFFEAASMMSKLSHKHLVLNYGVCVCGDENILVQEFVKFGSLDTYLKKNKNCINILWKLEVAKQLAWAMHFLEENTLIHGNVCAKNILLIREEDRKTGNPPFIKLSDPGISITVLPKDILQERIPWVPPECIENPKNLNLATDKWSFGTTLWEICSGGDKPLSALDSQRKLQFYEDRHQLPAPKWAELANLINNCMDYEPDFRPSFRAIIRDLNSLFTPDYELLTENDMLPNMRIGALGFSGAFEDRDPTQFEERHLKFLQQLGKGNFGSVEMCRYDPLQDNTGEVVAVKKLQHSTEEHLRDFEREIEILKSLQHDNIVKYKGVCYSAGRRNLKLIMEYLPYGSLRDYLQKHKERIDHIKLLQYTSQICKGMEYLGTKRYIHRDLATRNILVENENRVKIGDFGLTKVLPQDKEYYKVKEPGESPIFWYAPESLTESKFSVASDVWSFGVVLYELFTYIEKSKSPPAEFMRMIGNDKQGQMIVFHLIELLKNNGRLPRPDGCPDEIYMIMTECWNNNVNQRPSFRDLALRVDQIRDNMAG

human JAK3 = human JAK3 (Homo sapiens (Human), UniProt P52333); test: JAK3 TR-FRET kinase assay; format: biochemical; settings: JAK3 0.0125 nM
Sequence of human JAK3 (P52333 whole entry): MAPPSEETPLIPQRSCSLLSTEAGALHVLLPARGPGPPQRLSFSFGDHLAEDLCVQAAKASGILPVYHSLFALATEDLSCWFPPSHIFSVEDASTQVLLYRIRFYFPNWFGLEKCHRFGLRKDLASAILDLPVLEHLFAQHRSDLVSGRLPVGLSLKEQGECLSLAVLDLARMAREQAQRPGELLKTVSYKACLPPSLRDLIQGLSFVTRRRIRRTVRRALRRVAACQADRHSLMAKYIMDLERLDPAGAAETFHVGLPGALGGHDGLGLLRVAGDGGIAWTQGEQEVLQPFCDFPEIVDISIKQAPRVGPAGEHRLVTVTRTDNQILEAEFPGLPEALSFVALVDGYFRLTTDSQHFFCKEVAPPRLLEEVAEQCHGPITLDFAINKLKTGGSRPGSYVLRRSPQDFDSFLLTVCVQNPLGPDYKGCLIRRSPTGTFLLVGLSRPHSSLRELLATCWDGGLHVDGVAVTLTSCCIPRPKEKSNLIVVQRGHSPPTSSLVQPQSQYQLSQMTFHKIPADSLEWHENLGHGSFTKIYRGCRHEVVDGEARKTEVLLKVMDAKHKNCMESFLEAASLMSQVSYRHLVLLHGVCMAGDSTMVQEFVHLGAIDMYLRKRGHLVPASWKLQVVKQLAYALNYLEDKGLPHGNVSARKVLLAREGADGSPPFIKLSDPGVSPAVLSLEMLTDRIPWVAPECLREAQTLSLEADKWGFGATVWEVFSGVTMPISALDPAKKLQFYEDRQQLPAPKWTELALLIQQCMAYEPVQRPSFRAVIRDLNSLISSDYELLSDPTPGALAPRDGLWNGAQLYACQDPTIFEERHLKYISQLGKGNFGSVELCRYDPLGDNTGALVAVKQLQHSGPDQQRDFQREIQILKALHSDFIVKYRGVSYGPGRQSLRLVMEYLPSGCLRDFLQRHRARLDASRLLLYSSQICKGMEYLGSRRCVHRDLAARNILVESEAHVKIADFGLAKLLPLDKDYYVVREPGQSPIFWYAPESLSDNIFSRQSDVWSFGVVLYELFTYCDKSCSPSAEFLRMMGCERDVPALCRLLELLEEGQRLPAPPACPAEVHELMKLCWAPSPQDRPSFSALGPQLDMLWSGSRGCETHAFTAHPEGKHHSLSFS

Sequence of TYK2 JH2 domain (P29597 589-875): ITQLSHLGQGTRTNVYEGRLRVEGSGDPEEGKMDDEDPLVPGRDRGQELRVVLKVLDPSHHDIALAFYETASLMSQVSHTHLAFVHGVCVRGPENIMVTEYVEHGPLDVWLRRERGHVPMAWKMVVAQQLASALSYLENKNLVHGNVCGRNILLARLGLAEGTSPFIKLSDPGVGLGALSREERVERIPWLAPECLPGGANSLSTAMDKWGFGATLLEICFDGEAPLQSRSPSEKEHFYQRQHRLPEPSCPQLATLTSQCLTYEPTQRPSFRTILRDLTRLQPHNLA

IC50 (TYK2 JH2 domain)	IC50 (human JAK1)	IC50 (human JAK2)	IC50 (human JAK3)	SMILES
50 to 500 nM	≥ 500 nM	≥ 500 nM	≥ 500 nM	CCC(=O)c1cnc(Nc2ncc(S(C)(=O)=O)cc2F)cc1Nc1cccc(-c2ncn(C)n2)c1OC [Compound 13Z]
< 5 nM	≥ 500 nM	≥ 500 nM	≥ 500 nM	CCC(=O)c1cnc(Nc2ccc(-n3ccccc3=O)cn2)cc1Nc1cccc(-c2ncn(C)n2)c1OC [Compound 15A, 6′-((4-((2-methoxy-3-(1-methyl-1H-1,2,4-triazol-3-yl)phenyl)amino)-5-propionylpyridin-2-yl)amino)-2H-[1,3′-bipyridin]-2-one]
50 to 500 nM	≥ 500 nM	≥ 500 nM	≥ 500 nM	CCC(=O)c1cnc(Nc2ncc(-n3ccccc3=O)cc2F)cc1Nc1cccc(-c2ncn(C)n2)c1OC [Compound 15AA]
5 to 50 nM	≥ 500 nM	≥ 500 nM	≥ 500 nM	CCC(=O)c1cnc(Nc2ccc3c(c2)COB3O)cc1Nc1cccc(-c2ncn(C)n2)c1OC [Compound 15BB]
< 5 nM	≥ 500 nM	≥ 500 nM	50 to 500 nM	CCC(=O)c1cnc(Nc2ccc(-c3cn(C)cn3)cn2)cc1Nc1cccc(-c2ncn(C)n2)c1OC [Compound 15B]
< 5 nM	≥ 500 nM	≥ 500 nM	≥ 500 nM	CCC(=O)c1cnc(Nc2cc3c(cn2)B(O)OC3)cc1Nc1cccc(-c2ncn(C)n2)c1OC [Compound 15CC]
< 5 nM	≥ 500 nM	≥ 500 nM	≥ 500 nM	CCC(=O)c1cnc(Nc2ccc(-c3ncn(C)n3)cn2)cc1Nc1cccc(-c2ncn(C)n2)c1OC [Compound 15C]
5 to 50 nM	≥ 500 nM	≥ 500 nM	≥ 500 nM	CCC(=O)c1cnc(Nc2ccc(P(C)(C)=O)cn2)cc1Nc1cccc(-c2ncn(C)n2)c1OC [Compound 15DD]
< 5 nM	≥ 500 nM	≥ 500 nM	≥ 500 nM	CCC(=O)c1cnc(Nc2ccc(-c3cnn(C)c3)cn2)cc1Nc1cccc(-c2ncn(C)n2)c1OC [Compound 15D]
< 5 nM	≥ 500 nM	≥ 500 nM	≥ 500 nM	CCC(=O)c1cnc(Nc2cc(-c3cn(C)cn3)ccn2)cc1Nc1cccc(-c2ncn(C)n2)c1OC [Compound 15E]
< 5 nM	≥ 500 nM	≥ 500 nM	≥ 500 nM	CCC(=O)c1cnc(Nc2cc(-c3ncn(C)n3)ccn2)cc1Nc1cccc(-c2ncn(C)n2)c1OC [Compound 15F]
< 5 nM	≥ 500 nM	≥ 500 nM	≥ 500 nM	CCC(=O)c1cnc(Nc2cc(-c3cnn(C)c3)ccn2)cc1Nc1cccc(-c2ncn(C)n2)c1OC [Compound 15G]
< 5 nM	≥ 500 nM	≥ 500 nM	≥ 500 nM	CCC(=O)c1cnc(Nc2ccc(-n3cccn3)cn2)cc1Nc1cccc(-c2ncn(C)n2)c1OC [Compound 15H]
< 5 nM	≥ 500 nM	≥ 500 nM	≥ 500 nM	CCC(=O)c1cnc(Nc2ccc(-n3ccnc3)cn2)cc1Nc1cccc(-c2ncn(C)n2)c1OC [Compound 15I]
< 5 nM	≥ 500 nM	≥ 500 nM	≥ 500 nM	CCC(=O)c1cnc(Nc2ccc(-c3cn(C)cn3)cn2)cc1Nc1nccc(-c2ncn(C)n2)c1OC [Compound 15J]
5 to 50 nM	≥ 500 nM	≥ 500 nM	≥ 500 nM	COc1c(Nc2cc(Nc3ccc(-c4cn(C)cn4)cn3)ncc2C(=O)C2CC2)cccc1-c1ncn(C)n1 [Compound 15K]
5 to 50 nM	≥ 500 nM	≥ 500 nM	≥ 500 nM	COc1c(-c2ncn(C)n2)ccnc1Nc1cc(Nc2ccc(-c3cn(C)cn3)cn2)ncc1C(=O)C1CC1 [Compound 15L]
5 to 50 nM	≥ 500 nM	≥ 500 nM	≥ 500 nM	CCC(=O)c1cnc(Nc2ccc(-c3ncn(C)n3)cn2)cc1Nc1nccc(-c2ncn(C)n2)c1OC [Compound 15M]
5 to 50 nM	≥ 500 nM	≥ 500 nM	≥ 500 nM	COc1c(Nc2cc(Nc3ccc(-c4ncn(C)n4)cn3)ncc2C(=O)C2CC2)cccc1-c1ncn(C)n1 [Compound 15N]
5 to 50 nM	≥ 500 nM	≥ 500 nM	≥ 500 nM	COc1c(-c2ncn(C)n2)ccnc1Nc1cc(Nc2ccc(-c3ncn(C)n3)cn2)ncc1C(=O)C1CC1 [Compound 15O]

IC50 (TYK2 JH2 domain)	IC50 (human JAK1)	IC50 (human JAK2)	IC50 (human JAK3)	SMILES
< 5 nM	≥ 500 nM	≥ 500 nM	≥ 500 nM	CCC(=O)c1cnc(Nc2ccc(-n3ccnc3)cn2)cc1Nc1nccc(-c2ncn(C)n2)c1OC [Compound 15P]
< 5 nM	≥ 500 nM	≥ 500 nM	≥ 500 nM	COc1c(Nc2cc(Nc3ccc(-n4ccnc4)cn3)ncc2C(=O)C2CC2)cccc1-c1ncn(C)n1 [Compound 15Q]
5 to 50 nM	≥ 500 nM	≥ 500 nM	≥ 500 nM	COc1c(-c2ncn(C)n2)ccnc1Nc1cc(Nc2ccc(-n3ccnc3)cn2)ncc1C(=O)C1CC1 [Compound 15R]
5 to 50 nM	≥ 500 nM	≥ 500 nM	≥ 500 nM	CCC(=O)c1cnc(Nc2ccn(-c3ccccc3)c(=O)n2)cc1Nc1nccc(-c2ncn(C)n2)c1OC [Compound 15S]
< 5 nM	≥ 500 nM	≥ 500 nM	≥ 500 nM	[2H]C([2H])([2H])CC(=O)c1cnc(Nc2ccn(-c3ccccc3)c(=O)n2)cc1Nc1cccc(-c2ncn(C)n2)c1OC [Compound 15T]
5 to 50 nM	≥ 500 nM	≥ 500 nM	≥ 500 nM	CCC(=O)c1cnc(Nc2ccc(-n3ccccc3=O)cn2)cc1Nc1nccc(-c2ncn(C)n2)c1OC [Compound 15U]
< 5 nM	≥ 500 nM	≥ 500 nM	≥ 500 nM	CCC(=O)c1cnc(Nc2ccc(-n3ccncc3=O)cn2)cc1Nc1cccc(-c2ncn(C)n2)c1OC [Compound 15V]
5 to 50 nM	≥ 500 nM	50 to 500 nM	50 to 500 nM	CCC(=O)c1cnc(Nc2ccc(-c3ccc[nH]c3=O)cn2)cc1Nc1cccc(-c2ncn(C)n2)c1OC [Compound 15W]
5 to 50 nM	≥ 500 nM	50 to 500 nM	50 to 500 nM	CCC(=O)c1cnc(Nc2ccc(-n3ccnc(C)c3=O)cn2)cc1Nc1cccc(-c2ncn(C)n2)c1OC [Compound 15X]
< 5 nM	≥ 500 nM	50 to 500 nM	50 to 500 nM	CCC(=O)c1cnc(Nc2ccc(-n3cnccc3=O)cn2)cc1Nc1cccc(-c2ncn(C)n2)c1OC [Compound 15Y]
5 to 50 nM	≥ 500 nM	≥ 500 nM	≥ 500 nM	CCC(=O)c1cnc(Nc2ccc(-n3nc(C)ccc3=O)cn2)cc1Nc1cccc(-c2ncn(C)n2)c1OC [Compound 15Z]
< 5 nM	≥ 500 nM	50 to 500 nM	50 to 500 nM	CCC(=O)c1cnc(Nc2ccc(-c3cccn(C)c3=O)cn2)cc1Nc1cccc(-c2ncn(C)n2)c1OC [Compound 16A, 6′-((4-((2-methoxy-3-(1-methyl-1H-1,2,4-triazol-3-yl)phenyl)amino)-5-propionylpyridin-2-yl)amino)-1-methyl-[3,3′-bipyridin]-2(1H)-one]
< 5 nM	≥ 500 nM	≥ 500 nM	≥ 500 nM	CCC(=O)c1cnc(Nc2cc(CN(C)C)ncn2)cc1Nc1cccc(-c2ncn(C)n2)c1OC [Compound 17A, 1-(6-((6-((dimethylamino)methyl)pyrimidin-4-yl)amino)-4-((2-methoxy-3-(1-methyl-1H-1,2,4-triazol-3-yl)phenyl)amino)pyridin-3-yl)propan-1-one]
< 5 nM	≥ 500 nM	50 to 500 nM	50 to 500 nM	CCC(=O)c1cnc(Nc2ccc(O[C@@H]3CCOC3)c(C)n2)cc1Nc1cccc(-c2ncn(C)n2)c1OC [Compound 18AAAA]
5 to 50 nM	≥ 500 nM	≥ 500 nM	≥ 500 nM	CCC(=O)c1cnc(Nc2cnc(O[C@H]3CN(C)C[C@@H]3F)cn2)cc1Nc1cccc(-c2ncn(C)n2)c1OC [Compound 18AAA]
< 5 nM	≥ 500 nM	50 to 500 nM	50 to 500 nM	CCC(=O)c1cnc(Nc2ccc(OCC3COC3)cn2)cc1Nc1cccc(-c2ncn(C)n2)c1OC [Compound 18AA]
5 to 50 nM	≥ 500 nM	≥ 500 nM	≥ 500 nM	CCC(=O)c1cnc(Nc2ncc(OC3COC3)cc2F)cc1Nc1cccc(-c2ncn(C)n2)c1OC [Compound 18BBBB]
5 to 50 nM	≥ 500 nM	≥ 500 nM	≥ 500 nM	CCC(=O)c1cnc(Nc2cnc(O[C@H]3CN(C)C[C@H]3F)cn2)cc1Nc1cccc(-c2ncn(C)n2)c1OC [Compound 18BBB]
< 5 nM	≥ 500 nM	≥ 500 nM	≥ 500 nM	CCC(=O)c1cnc(Nc2ccc(O[C@@H]3CCOC3)cn2)cc1Nc1cccc(-c2ncn(C)n2)c1OC [Compound 18BB]

SMILES	IC50 (TYK2 JH2 domain)	IC50 (human JAK1)	IC50 (human JAK2)	IC50 (human JAK3)
CCC(=O)c1cnc(Nc2ccc(S(C)(=N)=O)cn2)cc1Nc1cccc(-c2ncn(C)n2)c1OC (stereo not shown) [Compound 14A, imino(6-((4-((2-methoxy-3-(1-methyl-1H-1,2,4-triazol-3-yl)phenyl)amino)-5-propionylpyridin-2-yl)amino)pyridin-3-yl)(methyl)-16-sulfanone]	< 5 nM	≥ 500 nM	≥ 500 nM	≥ 500 nM
